Measured values from ChEMBL document CHEMBL1135015, “Silanediol-based inhibitor of thermolysin” (Bioorg Med Chem Lett, 2002).

Molecular target: T1, Thermolysin (Bacillus thermoproteolyticus, UniProt P00800)
T1 sequence (P00800 whole entry): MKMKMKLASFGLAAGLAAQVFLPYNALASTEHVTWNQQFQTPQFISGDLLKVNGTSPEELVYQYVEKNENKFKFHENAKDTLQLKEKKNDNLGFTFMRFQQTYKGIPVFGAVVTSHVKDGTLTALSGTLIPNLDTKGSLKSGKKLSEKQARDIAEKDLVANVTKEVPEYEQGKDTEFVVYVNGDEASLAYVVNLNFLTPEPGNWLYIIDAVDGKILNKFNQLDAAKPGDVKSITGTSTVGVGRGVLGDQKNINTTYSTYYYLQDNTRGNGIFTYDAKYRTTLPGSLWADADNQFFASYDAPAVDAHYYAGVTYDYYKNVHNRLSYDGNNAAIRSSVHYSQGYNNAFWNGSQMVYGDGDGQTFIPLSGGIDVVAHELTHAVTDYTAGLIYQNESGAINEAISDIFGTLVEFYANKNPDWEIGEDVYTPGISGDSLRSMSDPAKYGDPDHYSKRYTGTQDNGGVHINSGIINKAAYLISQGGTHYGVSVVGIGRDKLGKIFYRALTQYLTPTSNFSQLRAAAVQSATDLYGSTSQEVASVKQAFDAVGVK
Assay: Competitive inhibition of thermolysin evaluated using the substrate FAGLA (Sigma); Competitive binding observed

Ki [nM]	SMILES
41	CC(C)C[C@H](C[Si](O)(O)CNC(=O)CCc1ccccc1)C(=O)N[C@@H](CC(C)C)C(=O)O
41	CC(C)C[C@@H](CO)C[Si](CN)(c1ccccc1)c1ccccc1
11	CC(C)C[C@H](CP(=O)(O)CNC(=O)OCc1ccccc1)C(=O)N[C@@H](CC(C)C)C(=O)O
